Experimental data published in patent US10173996B2, “Histone demethylase inhibitors” (CELGENE QUANTICEL RESEARCH, INC., priority 2012, dated 2019).

System: KDM5A and KDM5B (tri-methyl H3K4, ZR-75-1 breast cancer cell line)
Assay: In vitro cell-based assay: tri-methyl H3K4 immuno-blotting in ZR-75-1 breast cancer cells
Details: Homo sapiens, 72 hours with test compound, read-out: Cellular IC50
Excerpt: This quantitative immuno-blotting assay measures the amount tri-methylated histone H3 at amino acid Lysine number 4, a specific substrate […] of the direct enzymatic activity of the histone demethylases KDM5A and KDM5B from extracts of the ZR-75-1 breast cancer cell line.
This assay is a fluorometric immunoassay for the quantification of tri-methyl H3K4 extracted from cells treated with test compound and is used as a measure of the cellular inhibition of KDM5A/B.
ZR-75-1(PTEN null, ER+) breast cancer cells numbering 50,000 (ATCC) were seeded into each well of a 96-well tissue culture treated plate and then exposed to an 11 point dilution of test compound with final concentration ranges of test compound ranging from […] to 10 nM. […] Extracts were prepared containing all of the cellular histone material using detergent based lysis and sonication methods. These lysates were subsequently normalized for total protein content using a colorimetric bicinchonic acid assay (MicroBCA Pierce/Thermo Scientific). Normalized cell extracts were then subjected to typical immuno-blotting procedures using NuPage reagents (Life Technologies). Electrophoretically separated histones were then transferred and immobilized using polyvinylidene difluoride membrane (Immobilon-FL Millipore). The amount of tri-methylated lysine 4 of histone H3 was detected using an antibody specific to the tri-methylated state (Cell Signaling Technologies) and quantified on an infrared imager using a densitometry software package (Odyssey CLx, Image Studio, Li-Cor). This background subtracted densitometry value was reported as a ration of the GAPDH amount for that sample and then calculated as a percent of the DMSO treated sample. The software package XL-fit (IDBS) was then used to calculate a relative IC50 value for the dilution series of a given test compound according to the equation: fit=(D+((Vmax*(x^n))/((x^n)+(Km^n)))).

Molecule `O=C(O)c1ccnc(-n2nccc2OCc2ccccc2)c1` [Example 39, 2-(5-(benzyloxy)-1H-pyrazol-1-yl)isonicotinic acid] has an IC50 of 1000 to 10000 nM.
Work on `O=C(O)c1ccnc(-n2nccc2OCc2ccc(F)cc2)c1` [Example 40, 2-{5-[(4-fluorobenzyl)oxy]-1H-pyrazol-1-yl}pyridine-4-carboxylic acid] yielded an IC50 of 100 to 1000 nM.
In the case of `O=C(O)c1ccnc(-n2nccc2OCc2cccc(F)c2)c1` [Example 41, 2-{5-[(3-fluorobenzyl)oxy]-1H-pyrazol-1-yl}pyridine-4-carboxylic acid], the IC50 is reported as over 10000 nM.
Molecule `O=C(O)c1ccnc(-n2nccc2OCc2ccc(F)c(F)c2)c1` [Example 52, 2-{5-[(3,4-difluorobenzyl)oxy]-1H-pyrazol-1-yl}pyridine-4-carboxylic acid] has an IC50 of 100 to 1000 nM.
`O=C(O)c1ccnc(-n2nccc2OCc2ccc(Cl)cc2)c1` [Example 53, 2-{5-[(4-chlorobenzyl)oxy]-1H-pyrazol-1-yl}pyridine-4-carboxylic acid] was tested, and the IC50 was 100 to 1000 nM.
For `Cc1ccc(COc2ccnn2-c2cc(C(=O)O)ccn2)cc1` [Example 55, 2-{5-[(4-methylbenzyl)oxy]-1H-pyrazol-1-yl}pyridine-4-carboxylic acid], the IC50 was 100 to 1000 nM.
`CCc1ccc(COc2ccnn2-c2cc(C(=O)O)ccn2)cc1` [Example 56, 2-{5-[(4-ethylbenzyl)oxy]-1H-pyrazol-1-yl}pyridine-4-carboxylic acid] gave an IC50 of 100 to 1000 nM.
Work on `O=C(O)c1ccnc(-n2nccc2OCc2cccc(Cl)c2)c1` [Example 58, 2-{5-[(3-chlorobenzyl)oxy]-1H-pyrazol-1-yl}pyridine-4-carboxylic acid] yielded an IC50 of 100 to 1000 nM.
With `COC(=O)c1ccnc(-n2nccc2OCc2ccc(F)c(F)c2)c1` [Example 63, methyl 2-{5-[(3,4-difluorobenzyl)oxy]-1H-pyrazol-1-yl}pyridine-4-carboxylate] the IC50 was 100 to 1000 nM.
`COC(=O)c1ccnc(-n2nccc2OCc2ccc(Cl)cc2)c1` [Example 64, Methyl 2-{5-[(4-chlorobenzyl)oxy]-1H-pyrazol-1-yl}pyridine-4-carboxylate] gave an IC50 of 100 to 1000 nM.
With `O=C(O)c1ccnc(-n2nccc2OCC2CCC(F)(F)CC2)c1` [Example 71, 2-{5-[(4,4-difluorocyclohexyl)methoxy]-1H-pyrazol-1-yl}pyridine-4-carboxylic acid] the IC50 was 1000 to 10000 nM.
`O=C(O)c1ccnc(-n2nccc2OCc2ccc(Cl)cc2F)c1` [Example 75, 2-{5-[(4-chloro-2-fluorobenzyl)oxy]-1H-pyrazol-1-yl}pyridine-4-carboxylic acid] was tested, and the IC50 was 1000 to 10000 nM.
For `O=C(O)c1ccnc(-n2nccc2OCc2ccc(F)c(Cl)c2)c1` [Example 76, 2-{5-[(3-chloro-4-fluorobenzyl)oxy]-1H-pyrazol-1-yl}pyridine-4-carboxylic acid], the IC50 was 1000 to 10000 nM.
Molecule `O=C(O)c1ccnc(-n2nccc2OCc2ccc(F)cc2F)c1` [Example 86, 2-[5-[(2,4-difluorophenyl)methoxy]pyrazol-1-yl]pyridine-4-carboxylic acid] has an IC50 of 1000 to 10000 nM.
`COc1cc(Cl)ccc1COc1ccnn1-c1cc(C(=O)O)ccn1` [Example 90, 2-[5-[(4-chloro-2-methoxyphenyl)methoxy]pyrazol-1-yl]pyridine-4-carboxylic acid] was tested, and the IC50 was 100 to 1000 nM.
`Cc1ccc(COc2ccnn2-c2cc(C(=O)O)ccn2)cc1Cl` [Example 92, 2-[5-[(3-chloro-4-methylphenyl)methoxy]pyrazol-1-yl]pyridine-4-carboxylic acid] was tested, and the IC50 was 100 to 1000 nM.
`Cc1ccc(COc2ccnn2-c2cc(C(=O)O)ccn2)cc1F` [Example 93, 2-[5-[(3-fluoro-4-methylphenyl)methoxy]pyrazol-1-yl]pyridine-4-carboxylic acid] showed an IC50 of 100 to 1000 nM.
`Cc1ccc(COc2ccnn2-c2cc(C(=O)O)ccn2)c(F)c1F` [Example 94, 2-[5-[(2,3-difluoro-4-methylphenyl)methoxy]pyrazol-1-yl]pyridine-4-carboxylic acid] showed an IC50 of 1000 to 10000 nM.
Work on `COC(=O)c1ccnc(-n2nccc2OCc2ccc(C#N)cc2)c1` [Example 98, methyl 2-[5-[(4-cyanophenyl)methoxy]pyrazol-1-yl]pyridine-4-carboxylate] yielded an IC50 of 1000 to 10000 nM.
In the case of `N#Cc1ccc(COc2ccnn2-c2cc(C(=O)O)ccn2)cc1` [Example 99, 2-[5-[(4-cyanophenyl)methoxy]pyrazol-1-yl]pyridine-4-carboxylic acid], the IC50 is reported as 100 to 1000 nM.
Work on `O=C(O)c1ccnc(-n2nccc2OCc2ccc(F)cc2OCc2ccc(F)cc2)c1` [Example 118, 2-[5-[[4-fluoro-2-[(4-fluorophenyl)methoxy]phenyl]methoxy]pyrazol-1-yl]pyridine-4-carboxylic acid] yielded an IC50 of 1000 to 10000 nM.
For `O=C(O)c1ccnc(-n2nccc2OCc2ccc(F)cc2CCc2ccc(F)cc2)c1` [Example 121, 2-[5-[[4-fluoro-2-[2-(4-fluorophenyl)ethyl]phenyl]methoxy]pyrazol-1-yl]pyridine-4-carboxylic acid], the IC50 was 1000 to 10000 nM.
With `CCc1cc(C#N)ccc1COc1ccnn1-c1cc(C(=O)O)ccn1` [Example 126, 2-[5-[(4-cyano-2-ethylphenyl)methoxy]pyrazol-1-yl]pyridine-4-carboxylic acid] the IC50 was over 10000 nM.
With `Cc1cc(F)ccc1COc1ccnn1-c1cc(C(=O)O)ccn1` [Example 128, 2-[5-[(4-fluoro-2-methylphenyl)methoxy]pyrazol-1-yl]pyridine-4-carboxylic acid] the IC50 was 100 to 1000 nM.
`CCc1cc(F)ccc1COc1ccnn1-c1cc(C(=O)O)ccn1` [Example 129, 2-[5-[(2-ethyl-4-fluorophenyl)methoxy]pyrazol-1-yl]pyridine-4-carboxylic acid] was tested, and the IC50 was 1000 to 10000 nM.
`Cc1ccc(COc2ccnn2-c2cc(C(=O)O)ccn2)c(Cl)c1` [Example 130, 2-[5-[(2-chloro-4-methylphenyl)methoxy]pyrazol-1-yl]pyridine-4-carboxylic acid] showed an IC50 of 1000 to 10000 nM.
For `Cc1ccc(COc2ccnn2-c2cc(C(=O)O)ccn2)c(F)c1` [Example 131, 2-[5-[(2-fluoro-4-methylphenyl)methoxy]pyrazol-1-yl]pyridine-4-carboxylic acid], the IC50 was 1000 to 10000 nM.
Molecule `Cc1ccc(COc2ccnn2-c2cc(C(=O)O)ccn2)c(C)c1` [Example 132, 2-[5-[(2,4-dimethylphenyl)methoxy]pyrazol-1-yl]pyridine-4-carboxylic acid] has an IC50 of 100 to 1000 nM.
`Cc1ccc(COc2ccnn2-c2cc(C(=O)O)ccn2)c(C#N)c1` [Example 134, 2-[5-[(2-cyano-4-methylphenyl)methoxy]pyrazol-1-yl]pyridine-4-carboxylic acid] was tested, and the IC50 was 1000 to 10000 nM.
With `CC(Oc1cc(Cl)ccc1COc1ccnn1-c1cc(C(=O)O)ccn1)c1ccccc1` (centres unmarked) [Example 136, 2-[5-[[4-chloro-2-(1-phenylethoxy)phenyl]methoxy]pyrazol-1-yl]pyridine-4-carboxylic acid] the IC50 was 1000 to 10000 nM.
`CC(Oc1cc(F)ccc1COc1ccnn1-c1cc(C(=O)O)ccn1)c1ccccc1` (centres unmarked) [Example 137, 2-[5-[[4-fluoro-2-(1-phenylethoxy)phenyl]methoxy]pyrazol-1-yl]pyridine-4-carboxylic acid] showed an IC50 of 1000 to 10000 nM.
Molecule `O=C(O)c1ccnc(-n2nccc2OCc2ccc(Cl)c(OCc3ccc(F)cc3)c2)c1` [Example 138, 2-[5-[[4-chloro-3-[(4-fluorophenyl)methoxy]phenyl]methoxy]pyrazol-1-yl]pyridine-4-carboxylic acid] has an IC50 of 1000 to 10000 nM.
Work on `O=C(O)c1ccnc(-n2nccc2OCc2ccc(Cl)c(OCC3CC3)c2)c1` [Example 140, 2-[5-[[4-chloro-3-(cyclopropylmethoxy)phenyl]methoxy]pyrazol-1-yl]pyridine-4-carboxylic acid] yielded an IC50 of 1000 to 10000 nM.
Molecule `O=C(O)c1ccnc(-n2nccc2OCc2ccc(Cl)c(OCC(F)(F)F)c2)c1` [Example 141, 2-[5-[[4-chloro-3-(2,2,2-trifluoroethoxy)phenyl]methoxy]pyrazol-1-yl]pyridine-4-carboxylic acid] has an IC50 of 1000 to 10000 nM.
Molecule `Cc1cc(Br)ccc1COc1ccnn1-c1cc(C(=O)O)ccn1` [Example 142, 2-[5-[(4-bromo-2-methylphenyl)methoxy]pyrazol-1-yl]pyridine-4-carboxylic acid] has an IC50 of 1000 to 10000 nM.
With `Cc1cc(I)ccc1COc1ccnn1-c1cc(C(=O)O)ccn1` [Example 144, 2-[5-[(4-iodo-2-methylphenyl)methoxy]pyrazol-1-yl]pyridine-4-carboxylic acid] the IC50 was 1000 to 10000 nM.
Molecule `COc1cc(I)ccc1COc1ccnn1-c1cc(C(=O)O)ccn1` [Example 145, 2-[5-[(4-iodo-2-methoxyphenyl)methoxy]pyrazol-1-yl]pyridine-4-carboxylic acid] has an IC50 of 1000 to 10000 nM.
`CCc1ccc(COc2ccnn2-c2cc(C(=O)O)ccn2)c(F)c1` [Example 151, 2-[5-[(4-ethyl-2-fluorophenyl)methoxy]pyrazol-1-yl]pyridine-4-carboxylic acid] gave an IC50 of 1000 to 10000 nM.
